The target in assay [1] is T1, human TRPV1 receptor (hTRPV1) (Homo sapiens (Human), UniProt Q8NER1). Put plainly: Acid activation assay (pH 5.0, FLIPR intracellular Ca2+). The class given is cell-based. The settings on record: Table 1; 37.5 μM antagonist, percentage of the maximal pH 5.0-induced response remaining; read-out: hTRPV1 H+ (max % remain). In short, it runs like this: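 1321N1 astrocytoma cells stably expressing homomeric hTRPV1, loaded with Calcium-4 dye 90–120 min at 25 °C. Compounds, 12-point half-log range, added 3 min before pH 5.0 DPBS/MES challenge; intracellular Ca2+ read by FLIPR fluorescence.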
T1 sequence (Q8NER1 whole entry): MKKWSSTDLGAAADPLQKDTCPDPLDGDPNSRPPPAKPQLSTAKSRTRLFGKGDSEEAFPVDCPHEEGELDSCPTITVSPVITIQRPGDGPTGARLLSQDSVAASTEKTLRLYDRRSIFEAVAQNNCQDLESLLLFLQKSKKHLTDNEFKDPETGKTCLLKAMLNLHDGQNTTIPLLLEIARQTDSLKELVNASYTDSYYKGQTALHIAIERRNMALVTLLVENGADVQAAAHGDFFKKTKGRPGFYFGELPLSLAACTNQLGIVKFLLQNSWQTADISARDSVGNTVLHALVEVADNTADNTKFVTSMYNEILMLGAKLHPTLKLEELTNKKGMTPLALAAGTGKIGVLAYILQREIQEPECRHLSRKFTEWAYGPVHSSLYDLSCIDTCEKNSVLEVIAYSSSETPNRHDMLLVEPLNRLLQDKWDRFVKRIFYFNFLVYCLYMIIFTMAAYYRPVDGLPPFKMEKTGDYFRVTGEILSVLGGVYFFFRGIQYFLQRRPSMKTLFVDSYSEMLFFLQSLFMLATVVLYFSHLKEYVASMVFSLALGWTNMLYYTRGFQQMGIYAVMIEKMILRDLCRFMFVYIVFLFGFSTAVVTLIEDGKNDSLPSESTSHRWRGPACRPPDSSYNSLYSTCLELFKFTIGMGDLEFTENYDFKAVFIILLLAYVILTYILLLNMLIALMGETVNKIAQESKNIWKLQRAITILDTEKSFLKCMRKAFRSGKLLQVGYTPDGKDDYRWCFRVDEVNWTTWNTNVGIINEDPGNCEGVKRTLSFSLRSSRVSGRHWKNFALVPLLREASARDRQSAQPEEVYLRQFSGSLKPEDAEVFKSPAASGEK

Assay [2] deals with T1, human TRPV1 receptor (hTRPV1). The assay is described as follows: Capsaicin activation assay (FLIPR intracellular Ca2+). In kind it is cell-based. The settings on record: Table 1; inhibition of capsaicin-induced intracellular Ca2+ increase, HEK293 cells expressing human TRPV1; read-out: hTRPV1 cap IC50. The method, boiled down:
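HEK293 cells stably expressing human TRPV1, loaded with Calcium-4 dye 90–120 min at room temperature, preincubated 3 min with compound (12-point one-third-log range) before capsaicin (200 nM as 4× solution). Peak FLIPR fluorescence minus baseline expressed as percent of 50 nM capsaicin control response.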

As to `O=C(Nc1cccc2[nH]ncc12)N[C@@H]1C[C@H](c2ccccc2)[C@@H]2[C@H]1C2(F)F` [Example 54, 1-((1R,2R,4S,5R)-6,6-difluoro-4-phenylbicyclo[3.1.0]hex-2-yl)-3-(1H-indazol-4-yl)urea], in assay [1], the remaining activity at 37.5 µM was found to be 69%. Further, the IC50 – broadly, the concentration at which inhibition is half-maximal – in assay [2] was found to be 1340 nM.

With `O=C(Nc1cccc2[nH]ncc12)N[C@@H]1C[C@H](c2ccccc2)[C@@H]2C[C@@H]21` [Example 55, 1-(1H-indazol-4-yl)-3-((1S,2R,4S,5S)-4-phenylbicyclo[3.1.0]hex-2-yl)urea], the remaining activity at 37.5 µM in assay [1] amounted to 11%. In assay [2], the IC50 is 37 nM.

Turning to `O=C(Nc1cccc2[nH]ncc12)N[C@H]1C[C@@H](c2ccccc2)C1` [Example 56, 1-(1H-indazol-4-yl)-3-(cis-3-phenylcyclobutyl)urea], in assay [1], the remaining activity at 37.5 µM came to 10%. Besides, the IC50 in assay [2] was found to be 14 nM.

Turning to `O=C(Nc1cccc2[nH]ncc12)N[C@H]1C[C@H](c2ccccc2)C1` [Example 57, 1-(1H-indazol-4-yl)-3-(trans-3-phenylcyclobutyl)urea], in assay [1], the remaining activity at 37.5 µM amounted to 4%. Further, the 50% inhibitory concentration (IC50) in assay [2] worked out at 64 nM.

Regarding `O=C(Nc1cccc2c1C[C@H](O)C2)N[C@H]1C[C@H](c2ccccc2)C1` [Example 59, 1-[(2R)-2-hydroxy-2,3-dihydro-1H-inden-4-yl]-3-(trans-3-phenylcyclobutyl)urea], the remaining activity at 37.5 µM in assay [1] was found to be 79%. The half-maximal inhibitory concentration (IC50) in assay [2] is 435 nM.

Take `O=C(Nc1cccc2c1C[C@H](O)C2)N[C@H]1C[C@@H](c2ccccc2)C1` [Example 60, 1-[(2R)-2-hydroxy-2,3-dihydro-1H-inden-4-yl]-3-(cis-3-phenylcyclobutyl)urea]: the remaining activity at 37.5 µM in assay [1] was determined as 72%. Also, the concentration for half-maximal inhibition (IC50) in assay [2] stood at 331 nM.

`O=C(Nc1cccc2[nH]ncc12)N[C@H]1CC[C@H](c2ccccc2F)C1` [Example 62, 1-[(1S,3S)-3-(2-fluorophenyl)cyclopentyl]-3-(1H-indazol-4-yl)urea]: in assay [1], the remaining activity at 37.5 µM came out at 5%. The IC50 in assay [2] came out at 10 nM.

On to `O=C(Nc1cccc2[nH]ncc12)N[C@H]1C=C[C@@H](c2ccccc2)C1` [Example 63, 1-(1H-indazol-4-yl)-3-[(1R,4S)-4-phenylcyclopent-2-en-1-yl]urea], for which the remaining activity at 37.5 µM in assay [1] turned out to be 38%. The concentration for half-maximal inhibition (IC50) in assay [2] turned out to be 122 nM.

`O=C(Nc1cccc2[nH]ncc12)N[C@@H]1CC[C@H](c2cccc(F)c2)C1` [Example 65, 1-[(1R,3S)-3-(3-fluorophenyl)cyclopentyl]-3-(1H-indazol-4-yl)urea]: in assay [1], the remaining activity at 37.5 µM worked out at 12%. Further, the IC50 in assay [2] came to 8 nM.

On to `O=C(Nc1cccc2[nH]ncc12)N[C@H]1CC[C@@H](c2ccccc2F)C1` [Example 67, 1-[(1S,3R)-3-(2-fluorophenyl)cyclopentyl]-3-(1H-indazol-4-yl)urea], for which the remaining activity at 37.5 µM in assay [1] is 18%. In addition, the IC50 in assay [2] was determined as 11 nM.

As to `O=C(Nc1cccc2[nH]ncc12)N[C@@H]1CC[C@@H](c2cccc(F)c2)C1` [Example 68, 1-[(1R,3R)-3-(3-fluorophenyl)cyclopentyl]-3-(1H-indazol-4-yl)urea], in assay [1], the remaining activity at 37.5 µM came to 41%. For the same molecule, the IC50 in assay [2] was determined as 48 nM.

Turning to `O=C(Nc1cccc2[nH]ncc12)N[C@H]1CC[C@@H](c2cccc(F)c2)C1` [Example 69, 1-[(1S,3R)-3-(3-fluorophenyl)cyclopentyl]-3-(1H-indazol-4-yl)urea], in assay [1], the remaining activity at 37.5 µM came out at 2%. Further, the IC50 in assay [2] was determined as 12 nM.

For `Cc1cc2c(NC(=O)N[C@@H]3CC[C@H](c4ccccc4F)C3)c(F)ccc2cn1` [Example 70, 1-(6-fluoro-3-methylisoquinolin-5-yl)-3-[(1R,3S)-3-(2-fluorophenyl)cyclopentyl]urea], in assay [1], the remaining activity at 37.5 µM turned out to be 22%. The IC50 in assay [2] was determined as 5.6 nM.

Turning to `Cc1cc2c(NC(=O)N[C@H]3CC[C@H](c4ccccc4F)C3)c(F)ccc2cn1` [Example 71, 1-(6-fluoro-3-methylisoquinolin-5-yl)-3-[(1S,3S)-3-(2-fluorophenyl)cyclopentyl]urea], the remaining activity at 37.5 µM in assay [1] came out at 15%. Also, the half-inhibitory concentration (IC50) in assay [2] came out at 8.6 nM.

For the molecule `C[C@@]1(c2ccccc2)CC[C@H](NC(=O)Nc2cccc3[nH]ncc23)C1` [Example 72, 1-(1H-indazol-4-yl)-3-[(1S,3R)-3-methyl-3-phenylcyclopentyl]urea], the remaining activity at 37.5 µM in assay [1] amounted to 22%. Besides, in assay [2], the IC50 came to 80 nM.

With `C[C@@]1(c2ccccc2)CC[C@@H](NC(=O)Nc2cccc3[nH]ncc23)C1` [Example 73, 1-(1H-indazol-4-yl)-3-[(1R,3R)-3-methyl-3-phenylcyclopentyl]urea], the remaining activity at 37.5 µM in assay [1] was determined as 11%. The IC50 in assay [2] turned out to be 164 nM.

As to `Cc1cc2c(NC(=O)N[C@H]3CC[C@H](c4cccc(F)c4)C3)c(F)ccc2cn1` [Example 74, 1-(6-fluoro-3-methylisoquinolin-5-yl)-3-[(1S,3S)-3-(3-fluorophenyl)cyclopentyl]urea], the remaining activity at 37.5 µM in assay [1] turned out to be 44%. Further, in assay [2], the half-maximal inhibitory concentration (IC50) amounted to 3.5 nM.

As to `Cc1cc2c(NC(=O)N[C@@H]3CC[C@@](C)(c4ccccc4)C3)c(F)ccc2cn1` [Example 75, 1-(6-fluoro-3-methylisoquinolin-5-yl)-3-[(1R,3R)-3-methyl-3-phenylcyclopentyl]urea], in assay [1], the remaining activity at 37.5 µM came to 16%. In addition, the IC50 in assay [2] came out at 21 nM.

Turning to `Cc1cc2c(NC(=O)N[C@@H]3CC[C@H](c4cccc(F)c4)C3)c(F)ccc2cn1` [Example 76, 1-(6-fluoro-3-methylisoquinolin-5-yl)-3-[(1R,3S)-3-(3-fluorophenyl)cyclopentyl]urea], the remaining activity at 37.5 µM in assay [1] was determined as 9%. Also, the half-maximal inhibitory concentration (IC50) in assay [2] turned out to be 2 nM.

As for `CN1C(=O)CCc2ccc(NC(=O)N[C@@H]3CC[C@H](c4ccccc4)C3)cc21` [Example 77, 1-(1-methyl-2-oxo-1,2,3,4-tetrahydroquinolin-7-yl)-3-[(1R,3S)-3-phenylcyclopentyl]urea], the remaining activity at 37.5 µM in assay [1] is 56%. In addition, the half-inhibitory concentration (IC50) in assay [2] was above 37500 nM.

With `Cn1c(=O)ccc2c(NC(=O)N[C@H]3CC[C@@H](c4cccc(F)c4)C3)cccc21` [Example 79, 1-[(1S,3R)-3-(3-fluorophenyl)cyclopentyl]-3-(1-methyl-2-oxo-1,2-dihydroquinolin-5-yl)urea], the remaining activity at 37.5 µM in assay [1] amounted to 75%. The IC50 in assay [2] was 11 nM.

As for `Cn1c(=O)ccc2c(NC(=O)N[C@H]3CC[C@@H](c4ccccc4F)C3)cccc21` [Example 80, 1-[(1S,3R)-3-(2-fluorophenyl)cyclopentyl]-3-(1-methyl-2-oxo-1,2-dihydroquinolin-5-yl)urea], in assay [1], the remaining activity at 37.5 µM is 55%. Moreover, in assay [2], the IC50 came to 10 nM.

Regarding `Cn1c(=O)ccc2c(NC(=O)N[C@@H]3CC[C@@H](c4ccccc4F)C3)cccc21` [Example 81, 1-[(1R,3R)-3-(2-fluorophenyl)cyclopentyl]-3-(1-methyl-2-oxo-1,2-dihydroquinolin-5-yl)urea], the remaining activity at 37.5 µM in assay [1] was determined as 66%. The 50% inhibitory concentration (IC50) in assay [2] stood at 2.3 nM.

For `Cc1cc2c(NC(=O)N[C@@H]3CC[C@@H](c4ccccc4F)C3)c(F)ccc2cn1` [Example 82, 1-(6-fluoro-3-methylisoquinolin-5-yl)-3-[(1R,3R)-3-(2-fluorophenyl)cyclopentyl]urea], the remaining activity at 37.5 µM in assay [1] was 12%. The 50% inhibitory concentration (IC50) in assay [2] came to 3.3 nM.
